Structures can show the parent of a compound that is named as a salt. Where two headings read alike, the source gives them in different places.
Columns and labels:
MOR [1] = molecular target: T1, MOR (Rattus norvegicus, UniProt P33535); assay: competition radioligand binding, rat brain membranes, [3H]DAMGO; conditions: for Ki: rat brain membranes, read-out: opioid receptor binding Ki MOR; for increase in MOR binding affinity vs comparator: rat brain, 17b vs 4b, 16a/b vs 7a/b, 22a/b vs 7a, 7b and 9b, 14a vs 14b
T1 construct: Membranes were prepared from Sprague-Dawley rat brains or guinea-pig brains according to the described procedures; tissue Labortierkunde und Laborgenetik, Medizinische Universität Wien; host or cells: Sprague-Dawley rat brain without cerebella

DOR [2] = molecular target: T2, DOR (Rattus norvegicus, UniProt P33533); assay: competition radioligand binding, rat brain membranes, [3H][Ile5,6]deltorphin II; conditions: rat brain membranes; read-out: opioid receptor binding Ki DOR
T2 construct: Membranes were prepared from Sprague-Dawley rat brains or guinea-pig brains according to the described procedures; tissue Labortierkunde und Laborgenetik, Medizinische Universität Wien; host or cells: Sprague-Dawley rat brain without cerebella

KOR [3] = molecular target: T3, KOR (Cavia porcellus, UniProt P41144); assay: competition radioligand binding, guinea-pig brain membranes, [3H]U69,593; conditions: for Ki: guinea-pig brain membranes, read-out: opioid receptor binding Ki KOR
T3 construct: Membranes were prepared from Sprague-Dawley rat brains or guinea-pig brains according to the described procedures; tissue Labortierkunde und Laborgenetik, Medizinische Universität Wien; host or cells: guinea-pig brain without cerebella

MOR [4] = molecular target: T4, MOR (Homo sapiens, UniProt P35372); assay: [35S]GTPγS binding assay, CHO-hMOR membranes; assay type: biochemical; conditions: for Emax: read-out: MOR % stim.; for functional profile at MOR (full/partial agonist): full agonist ≥85% of the response to DAMGO
T4 construct: host or cells: CHO (CHO-hMOR)

DOR [5] = molecular target: T5, DOR (Homo sapiens, UniProt P41143); assay: [35S]GTPγS binding assay, CHO-hDOR membranes; assay type: biochemical; conditions: for EC50: [35S]GTPγS, CHO human DOR membranes; for Emax: relative to reference full agonist DPDPE, read-out: DOR % stim.; for increased agonist potency at DOR vs MOR: [35S]GTPγS EC50
T5 construct: host or cells: CHO (CHO-hDOR)

KOR [6] = molecular target: T6, KOR (Homo sapiens, UniProt P41145); assay: [35S]GTPγS binding assay, CHO-hKOR membranes; assay type: biochemical; conditions: for EC50: [35S]GTPγS, CHO human KOR membranes, read-out: KOR EC50; for Emax: relative to reference full agonist U69,593, read-out: KOR % stim.; for functional profile at KOR (full/partial agonist): partial agonist <85% of the response to U69,593
T6 construct: host or cells: CHO (CHO-hKOR)

male CD1 mice = assay: acetic acid-induced writhing assay after sc administration; assay type: in vivo, mouse; conditions: for ED50: Mus musculus, 0.5 h, read-out: ED50 (95% CI), mice, sc, inhibition of writhing 30 min after drug administration
Protocol: Solutions of test compounds were prepared in sterile physiological 0.9% saline and further diluted to working doses in saline solution. Test compounds or saline (control) were administered by sc route in a volume of 10 μL/1 g of body weight. All doses are expressed in terms of salts. Separate groups of mice received the respective dose of compound, and individual mice were only used once for behavioral testing.
Writhing was induced in male CD1 mice by ip injection of a 0.6% acetic acid aqueous solution as described previously.[48],[62] Groups of mice were administered sc different doses of test compound or saline (control), and 5 min prior to testing (25 min after drug or saline), each animal received an ip injection of acetic acid solution. Each mouse was placed in individual transparent Plexiglas chambers, and the number of writhes was counted during a 10 min observation period. […] For the antagonism study, naloxone methiodide was sc co-administered with the respective opioid agonist, and writhing was assessed as described above.
Data were analyzed and graphically processed using the GraphPad Prism 5.0 Software (GraphPad Prism Software Inc., San Diego, CA). For in vitro assays, inhibition constant (Ki in nM), potency (EC50 in nM), and efficacy (% stimulation) values were determined from concentration–response curves by nonlinear regression analysis. The Ki values were determined by the method of Cheng and Prusoff.[66] In the [^35S]GTPγS binding assays, efficacy was determined relative to the reference full opioid agonists, DAMGO (MOR), DPDPE (DOR), and U69,593 (KOR). In vitro data are presented as mean ± SEM of three to four independent experiments each performed in duplicate. […] Each experimental group included six to seven mice. Data were statistically evaluated using one-way ANOVA with Tukey’s post hoc test for multiple comparisons with significance set at P < 0.05.

MOR [7] = molecular target: T4, MOR; assay: competition radioligand binding, CHO cell membranes expressing human MOR, [3H]DAMGO
Protocol: (§1) Membranes from CHO cells expressing human opioid receptors were prepared in 50 mM Tris-HCl buffer (pH 7.7) according to a previously described procedure.[64] Cells expressing human opioid receptors grown at confluence were removed from the culture plates by scraping, homogenized in 50 mM Tris buffer (pH 7.7), using a Polytron homogenizer, then centrifuged once and washed by an additional centrifugation at 27 000g for 15 min, at 4 °C. The final pellet was resuspended in Tris buffer and stored at −80 °C until use. Protein content of brain and cell membrane preparation homogenates was determined by the method of Bradford using bovine serum albumin as the standard.[65]
(§2) Rat brain membranes were incubated with either [^3H]DAMGO (1 nM, 45 min, 35 °C) or [^3H][Ile^5,6]deltorphin II (0.5 nM, 45 min, 35 °C) for labeling MOR or DOR receptors, respectively. Guinea-pig brain membranes were incubated with [^3H]U69,593 (1 nM, 30 min, 30 °C) for labeling KOR. Binding assays with CHO cell membranes were conducted at 25 °C for 60 min using [^3H]DAMGO (1 nM) or [^3H]diprenorphine (0.2 nM) for labeling MOR or DOR, respectively. Nonspecific binding was determined using 10 μM naloxone (rodent brain) or 1–10 μM of the unlabeled counterpart of each radioligand (CHO cells). Reactions were terminated by rapid filtration through Whatman glass fiber GF/C filters. Filters were washed three times with 5 mL of ice-cold 50 mM Tris-HCl buffer (pH 7.4) using a Brandel M24R cell harvester (Gaithersburg, MD). Radioactivity retained on the filters was counted by liquid scintillation counting using a Beckman Coulter LS6500 (Beckman Coulter Inc., Fullerton, CA). All binding experiments were performed in duplicate and repeated at least three times.
(§3) aDetermined in competition radioligand binding assays using CHO cell membranes expressing
(§4) human MOR and DOR. Values represent the mean ± SEM of three independent experiments each

DOR [8] = molecular target: T5, DOR; assay: competition radioligand binding, CHO cell membranes expressing human DOR, [3H]diprenorphine
Protocol: as §1, §2, §3, §4

[9] = [35S]GTPγS, CHO human MOR membranes, read-out: MOR EC50
[10] = relative to reference full agonist DAMGO

SMILES	Ki (MOR [1]) [nM]	increase in MOR binding affinity vs comparator (MOR [1])	Ki (DOR [2]) [nM]	Ki (KOR [3]) [nM]	EC50 (MOR [4]; [9]) [nM]	Emax (MOR [4]; [10]) [%]	EC50 (DOR [5]) [nM]	Emax (DOR [5]) [%]	EC50 (KOR [6]) [nM]	Emax (KOR [6]) [%]	ED50 (male CD1 mice) [mg/kg]	Ki (MOR [7]) [nM]	Ki (DOR [8]) [nM]	functional profile at MOR (full/partial agonist) (MOR [4])	functional profile at KOR (full/partial agonist) (KOR [6])	increased agonist potency at DOR vs MOR (DOR [5])	further results
CO[C@@]12CCC(N[C@@H](CCC(=O)O)C(=O)O)[C@@H]3Oc4c(O)ccc5c4[C@@]31CCN(C)[C@@H]2C5 (stereo in doubt) [Compound 14a, (2S)-2-[(4,5α-Epoxy-3-hydroxy-14β-methoxy-17-methylmorphinan-6β-yl)-amino]pentanedioic Acid Dihydrochloride]	1.45 ± 0.09	8 times	9.03 ± 0.7	87.2 ± 4.2	3.11 ± 1.32	105 ± 3	10.8 ± 2.1	98 ± 3	1170 ± 448	68 ± 5	0.0361	3.29 ± 0.61	24 ± 11.8				increased KOR affinity vs 6β analogue 14b (KOR [3]; guinea-pig brain): 14 times
CO[C@@]12CC[C@H](NC(C)C(=O)O)[C@@H]3Oc4c(O)ccc5c4[C@@]31CCN(C)[C@@H]2C5 (stereo in doubt) [Compound 15a, (2S)-2-[(4,5α-Epoxy-3-hydroxy-14β-methoxy-17-methylmorphinan-6α-yl)amino]propanoic Acid Dihydrochloride]			10.4 ± 0.01	71.5 ± 9.6		100 ± 8	24.3 ± 5.3	106 ± 7	254 ± 118	67 ± 13			14.9 ± 1.9				
CO[C@@]12CC[C@@H](N[C@H](Cc3ccccc3)C(=O)O)[C@@H]3Oc4c(O)ccc5c4[C@@]31CCN(C)[C@@H]2C5 [Compound 17b, (2R)-2-[(4,5α-Epoxy-3-hydroxy-14β-methoxy-17-methyl-morphinan-6β-yl)-amino]-3-phenylpropionic Acid Dihydrochloride]	1.28 ± 0.38	ca. 2 times	1.19 ± 0.13	139 ± 23	0.68 ± 0.29	~80	1.71 ± 0.78	96 ± 1	611 ± 350	92 ± 10	0.25	1.84 ± 0.14	2.17 ± 0.26	partial agonist	full agonists		EC50 (MOR [4]): < 1 nM
CO[C@@]12CC[C@@H](N[C@H](C(=O)N[C@@H](Cc3ccc(O)cc3)C(=O)O)C(C)C)[C@@H]3Oc4c(O)ccc5c4[C@@]31CCN(C)[C@@H]2C5 [Compound 22b, (2S)-2-[[(4,5α-Epoxy-3-hydroxy-14β-methoxy-17-methylmorphinan-6β-yl)amino]-(2S)-3-methylbutyrylamino]-3-(4-hydroxyphenyl)propionic Acid]	0.44 ± 0.01	4 to 7 times	1.38 ± 0.22	390 ± 49	0.16 ± 0.06	~70	1.56 ± 0.83	89 ± 7	1880 ± 594	63 ± 0.1				partial agonists			KOR/MOR selectivity ratio (MOR [1]; from Ki, guinea-pig (KOR) and rat (MOR) brain): 886; lower KOR affinity vs 6α analogue 22a (KOR [3]; guinea-pig brain): about 6 times; increased MOR potency than 1 (MOR [4]; [35S]GTPγS EC50): 24 times; selectivity for MOR over DOR (MOR [4]; [35S]GTPγS EC50): 10 times; functional profile at DOR (full/partial agonist) (DOR [5]; full agonist ≥85% of the response to DPDPE): full agonists; Ki (MOR [7]; CHO cell membranes expressing human MOR, read-out: Ki MOR): 0.64 ± 0.07 nM; Ki (DOR [8]; CHO cell membranes expressing human DOR, read-out: Ki DOR): 1.39 ± 0.13 nM
CO[C@@]12CC[C@@H](NC(C)C(=O)O)[C@@H]3Oc4c(O)ccc5c4[C@@]31CCN(C)[C@@H]2C5 (stereo in doubt) [Compound 15b, (2S)-2-[(4,5α-Epoxy-3-hydroxy-14β-methoxy-17-methylmorphinan-6β-yl)amino]propanoic Acid Dihydrochloride]			11.3 ± 0.9	142 ± 33		102 ± 9	5.46 ± 2.68	106 ± 6	1000 ± 192	86 ± 2			11.5 ± 2.6		full agonists	2–4 times	
CO[C@@]12CC[C@H](N[C@@H](Cc3ccccc3)C(=O)O)[C@@H]3Oc4c(O)ccc5c4[C@@]31CCN(C)[C@@H]2C5 [Compound 4a]					0.38 ± 0.19	93 ± 8	0.39 ± 0.19	102 ± 2	219 ± 2	39 ± 12	0.0311	0.81 ± 0.2	3.61 ± 1.2		partial agonist		EC50 (MOR [4]): < 1 nM; increased antinociceptive potency vs comparator (male CD1 mice; writhing assay, 3a vs 3b, 4a vs 4b, 16b vs 7a (so in the source)): 19 times
CO[C@@]12CC[C@H](NCC(=O)O)[C@@H]3Oc4c(O)ccc5c4[C@@]31CCN(C)[C@@H]2C5 [Compound 2a]					1.16 ± 0.59	99 ± 4			399 ± 119	87 ± 4	0.0357	0.79 ± 0.08	18.2 ± 6.1		full agonists		
CO[C@@]12CC[C@@H](N[C@@H](CCC(=O)O)C(=O)O)[C@@H]3Oc4c(O)ccc5c4[C@@]31CCN(C)[C@@H]2C5.Cl.Cl [Compound 14b, (2S)-2-[(4,5α-Epoxy-3-hydroxy-14β-methoxy-17-methylmorphinan-6β-yl)amino]pentanedioic Acid Dihydrochloride]	11.6 ± 0.7		7.64 ± 0.64	1250 ± 70	12.7 ± 4.7	98 ± 4	4.6 ± 1.79	101 ± 3	2230 ± 238	76 ± 0.7		28.7 ± 7.9	18 ± 3.5			2–4 times	
CO[C@@]12CC[C@@H](N[C@@H](Cc3ccccc3)C(=O)O)[C@@H]3Oc4c(O)ccc5c4[C@@]31CCN(C)[C@@H]2C5 [Compound 4b]					6.76 ± 3.16	99	0.48 ± 0.16	94 ± 8	1170 ± 505	81 ± 9	0.579	4.15 ± 0.47	1.12 ± 0.23	full agonist		14 times	MOR % stim. (MOR [4]; [10]): 99 ± 8%
